The IC50 is the point on the concentration scale where inhibition reaches its midpoint. A lower IC50 goes with higher potency.

Results on 50 compounds are retold here after ChEMBL document CHEMBL5729561, “Compounds and uses thereof” (2023).

The nature of the assay: On day 0 cells were seeded in 30 μL media into each well of 384-well cell culture plates. The seeding density was 8000 cells/well. On day 1, cells were treated with 30 nL DMSO or 30 nL of 3-fold serially DMSO-diluted compounds (10 points in duplicates with 1 μM as final top dose). Subsequently plates were incubated for 6 hours in a standard tissue culture incubator and equilibrated at room temperature for 15 minutes. Nanoluciferase activity was measured by adding 15 μL of freshly prepared Nano-Glo Luciferase Assay Reagent (Promega N1130), shaking the plates for 10 minutes and reading the bioluminescence using an EnVision reader. In kind it is cell-based.
With `COc1cc(-c2cn(C)c(=O)c3cnccc23)cc(OC)c1CN(C)C12CC(NC(=O)CCOCCOCCNc3cccc4c3C(=O)N(C3CCC(=O)NC3=O)C4=O)(C1)C2` (stereo not given), the IC50 is under 10 nM. Next, `COc1cc(-c2cn(C)c(=O)c3cnccc23)cc(OC)c1CN1CC(NC(=O)CCCCCOc2cccc3c2C(=O)N(C2CCC(=O)NC2=O)C3=O)C1` (stereo not given): “in the range around 55 nM”; `COc1cc(-c2cn(C)c(=O)c3cnccc23)cc(OC)c1CN1CC[C@H]1CN(C)Cc1cccc2c1C(=O)N(C1CCC(=O)NC1=O)C2=O` (stereo not given in full): “in the range around 55 nM”; `COc1cc(-c2cn(C)c(=O)c3cnccc23)cc(OC)c1CN1CC(C(=O)N(C)CCCCCCCCNc2cccc3c2C(=O)N(C2CCC(=O)NC2=O)C3=O)C1` (stereo not given): under 10 nM. Next, `COc1cc(-c2cn(C)c(=O)c3cnccc23)cc(OC)c1CN(C)Cc1cn(CCCCCOc2ccc3c(c2)C(=O)N(C2CCC(=O)NC2=O)C3=O)nn1` (stereo not given): “in the range around 55 nM”; `COc1cc(-c2cn(C)c(=O)c3cnccc23)cc(OC)c1CN1CCC(OC2CCN(C(=O)CCOCCOc3ccc4c(c3)C(=O)N(C3CCC(=O)NC3=O)C4=O)CC2)CC1` (stereo not given): under 10 nM; `COc1cc(-c2cn(C)c(=O)c3cnccc23)cc(OC)c1CN(C)C12CC(C(=O)NCCCCCNc3cccc4c3C(=O)N(C3CCC(=O)NC3=O)C4=O)(C1)C2` (stereo not given): under 10 nM. Next, `COc1cc(-c2cn(C)c(=O)c3cnccc23)cc(OC)c1CN1CC2(CCC2NC(=O)CCOCCOc2cccc3c2C(=O)N(C2CCC(=O)NC2=O)C3=O)C1` (stereo not given): over 1000 nM. In the case of `COc1cc(-c2cn(C)c(=O)c3cnccc23)cc(OC)c1CN1CCC(OCc2cn(CCOc3ccc4c(c3)C(=O)N(C3CCC(=O)NC3=O)C4=O)nn2)C1` (stereo not given), the IC50 result was “in the range around 55 nM”. In the case of `COc1cc(-c2cn(C)c(=O)c3cnccc23)cc(OC)c1CN1CCC2(C[C@H]2NC(=O)CCOCCOc2cccc3c2C(=O)N(C2CCC(=O)NC2=O)C3=O)C1` (stereo not given in full), the IC50 result is “in the range around 55 nM”. Next, `COc1cc(-c2cn(C)c(=O)c3cnccc23)cc(OC)c1CN1CCC2(CC1)CN(C(=O)COc1ccc3c(c1)C(=O)N(C1CCC(=O)NC1=O)C3=O)CCO2` (stereo not given): “in the range around 550 nM”. As for `COc1cc(-c2cn(C)c(=O)c3cnccc23)cc(OC)c1CN1CC2(CCN(C(=O)CCOCCOc3ccc4c(c3)C(=O)N(C3CCC(=O)NC3=O)C4=O)CC2)C1` (stereo not given), the IC50 entry is “in the range around 55 nM”. Next, `COc1cc(-c2cn(C)c(=O)c3cc(O)ccc23)cc(OC)c1CN1CCC2(CC1)CN(C(=O)CCCOc1cccc3c1C(=O)N(C1CCC(=O)NC1=O)C3=O)CCO2` (stereo not given): “in the range around 55 nM”; `COc1cc(-c2cn(C)c(=O)c3cnccc23)cc(OC)c1CN1CC(C(=O)NCCOCCOCCNc2cccc3c2C(=O)N(C2CCC(=O)NC2=O)C3=O)C1` (stereo not given): “in the range around 55 nM”; `COc1cc(-c2cn(C)c(=O)c3cnccc23)cc(OC)c1CN1CCC12CCN(C(=O)CCOCCOc1cccc3c1C(=O)N(C1CCC(=O)NC1=O)C3=O)C2` (stereo not given): “in the range around 550 nM”.

Turning to `COc1cc(-c2cn(C)c(=O)c3cnccc23)cc(OC)c1CN(C)Cc1cn(-c2ccc3c(c2)C(=O)N(C2CCC(=O)NC2=O)C3=O)nn1` (stereo not given), the IC50 entry is “in the range around 550 nM”. Next, `COc1cc(-c2cn(C)c(=O)c3cnccc23)cc(OC)c1CN(C)C1CC2CN(C(=O)CCOCCOc3cccc4c3C(=O)N(C3CCC(=O)NC3=O)C4=O)CC2C1` (stereo not given): “in the range around 55 nM”; `COc1cc(-c2cn(C)c(=O)c3cnccc23)cc(OC)c1CN1CC2(CCN(C(=O)CCOCCOc3ccc4c(c3)C(=O)N(C3CCC(=O)NC3=O)C4=O)C2)C1` (stereo not given): under 10 nM. Consider `COc1cc(-c2cn(C)c(=O)c3cnccc23)cc(OC)c1CN1CCC(COC2CCN(C(=O)CCOCCOc3cccc4c3C(=O)N(C3CCC(=O)NC3=O)C4=O)C2)CC1` (stereo not given), for which the IC50 result was “in the range around 55 nM”. Consider `COc1cc(-c2cn(C)c(=O)c3cnccc23)cc(OC)c1CN1CCC(OCc2cn(CCOc3ccc4c(c3)C(=O)N(C3CCC(=O)NC3=O)C4=O)nn2)CC1` (stereo not given), for which the IC50 entry was “in the range around 55 nM”.

As to `COc1cc(-c2cn(C)c(=O)c3cnccc23)cc(OC)c1CN1CC2(C1)CN(C(=O)COc1cccc3c1C(=O)N(C1CCC(=O)NC1=O)C3=O)C2` (stereo not given), the IC50 result was “in the range around 550 nM”.

For the compound `COc1cc(-c2cn(C)c(=O)c3cnccc23)cc(OC)c1CN1CCC12CN(C(=O)CCOCCOc1cccc3c1C(=O)N(C1CCC(=O)NC1=O)C3=O)C2` (stereo not given), the IC50 entry was “in the range around 550 nM”. Next, `COc1cc(-c2cn(C)c(=O)c3cnccc23)cc(OC)c1CN1CC2(CC(NC(=O)CCOCCOc3cccc4c3C(=O)N(C3CCC(=O)NC3=O)C4=O)C2)C1` (stereo not given): “in the range around 55 nM”; `COc1cc(-c2cn(C)c(=O)c3cnccc23)cc(OC)c1CN1CC2(C1)CN(C(=O)CCCOc1cccc3c1C(=O)N(C1CCC(=O)NC1=O)C3=O)C2` (stereo not given): “in the range around 55 nM”; `COc1cc(-c2cn(C)c(=O)c3cnccc23)cc(OC)c1CN1CC(S(=O)(=O)NCCCCNc2ccc3c(c2)C(=O)N(C2CCC(=O)NC2=O)C3=O)C1` (stereo not given): “in the range around 55 nM”. The figure for `COc1cc(-c2cn(C)c(=O)c3cnccc23)cc(OC)c1CN1CCN(C(=O)CCCCOc2cccc3c2C(=O)N(C2CCC(=O)NC2=O)C3=O)CC1` (stereo not given) is under 10 nM; for `COc1cc(-c2cn(C)c(=O)c3cnccc23)cc(OC)c1CN1CC2(CCC2NC(=O)CCOCCOc2ccc3c(c2)C(=O)N(C2CCC(=O)NC2=O)C3=O)C1` (stereo not given) it is “in the range around 550 nM”. `COc1cc(-c2cn(C)c(=O)c3cnccc23)cc(OC)c1CN1CC(C(=O)NCCCCCCCCNc2cccc3c2C(=O)N(C2CCC(=O)N(C)C2=O)C3=O)C1` (stereo not given): the IC50 is over 1000 nM.

Take `COc1cc(-c2cn(C)c(=O)c3cnccc23)cc(OC)c1CN1CCCC(OCc2cn(CCOCCOc3ccc4c(c3)C(=O)N(C3CCC(=O)NC3=O)C4=O)nn2)C1` (stereo not given): the IC50 result is “in the range around 55 nM”. As for `COc1cc(-c2cn(C)c(=O)c3cnccc23)cc(OC)c1CN1CC(OCc2cn(CCCCOc3ccc4c(c3)C(=O)N(C3CCC(=O)NC3=O)C4=O)nn2)C1` (stereo not given), the IC50 result was “in the range around 55 nM”. Consider `COc1cc(-c2cn(C)c(=O)c3cnccc23)cc(OC)c1CN(C)CC1CC2(CCN(C(=O)CCOCCOc3cccc4c3C(=O)N(C3CCC(=O)NC3=O)C4=O)CC2)O1` (stereo not given), for which the half-maximal inhibitory concentration (IC50) result was “in the range around 55 nM”. On to `COc1cc(-c2cn(C)c(=O)c3cnccc23)cc(OC)c1CNCCCN1CC(Oc2ccc3c(c2)C(=O)N(C2CCC(=O)NC2=O)C3=O)C1` (stereo not given), for which the IC50 entry was “in the range around 55 nM”.

Regarding `COc1cc(-c2cn(C)c(=O)c3cnccc23)cc(OC)c1CN1CC(CCNC(=O)CCOCCOc2ccc3c(c2)C(=O)N(C2CCC(=O)NC2=O)C3=O)C1` (stereo not given), the IC50 entry was “in the range around 550 nM”. Turning to `COc1cc(-c2cn(C)c(=O)c3cnccc23)cc(OC)c1CN1CCC(OC2CCN(C(=O)CCOCCOc3ccc4c(c3)C(=O)N(C3CCC(=O)NC3=O)C4=O)C2)CC1` (stereo not given), the 50% inhibitory concentration (IC50) was under 10 nM. Next, `COc1cc(-c2cn(C)c(=O)c3cnccc23)cc(OC)c1CN(C)CC12CC(NC(=O)CCOCCOCCNc3cccc4c3C(=O)N(C3CCC(=O)NC3=O)C4=O)(C1)C2` (stereo not given): “in the range around 550 nM”; `COc1cc(-c2cn(C)c(=O)c3cnccc23)cc(OC)c1CN(C)Cc1cn(CCOCCOc2ccc3c(c2)C(=O)N(C2CCC(=O)NC2=O)C3=O)nn1` (stereo not given): “in the range around 550 nM”; `COc1cc(-c2cn(C)c(=O)c3cnccc23)cc(OC)c1CN1CCN(CCCOc2ccc3c(c2)C(=O)N(C2CCC(=O)NC2=O)C3=O)CC1` (stereo not given): under 10 nM. With `COc1cc(-c2cn(C)c(=O)c3cnccc23)cc(OC)c1CN(C)CCc1cn(CCOCCOc2ccc3c(c2)C(=O)N(C2CCC(=O)NC2=O)C3=O)nn1` (stereo not given), the IC50 entry was “in the range around 55 nM”.

Regarding `COc1cc(-c2cn(C)c(=O)c3cnccc23)cc(OC)c1CN1CC[C@H]1C(=O)NCCN(C)CCNC(=O)COc1ccc2c(c1)C(=O)N(C1CCC(=O)NC1=O)C2=O` (stereo not given in full), the IC50 is over 1000 nM. For the compound `COc1cc(-c2cn(C)c(=O)c3cnccc23)cc(OC)c1CN1CCN(C(=O)CCCOc2cccc3c2C(=O)N(C2CCC(=O)NC2=O)C3=O)CC1` (stereo not given), the IC50 was under 10 nM. The figure for `COc1cc(-c2cn(C)c(=O)c3cnccc23)cc(OC)c1CN1CCC(OCc2cn(CCCCCOc3ccc4c(c3)C(=O)N(C3CCC(=O)NC3=O)C4=O)nn2)CC1` (stereo not given) is under 10 nM; for `COc1cc(-c2cn(C)c(=O)c3cnccc23)cc(OC)c1CN(C)CCc1cn(-c2ccc3c(c2)C(=O)N(C2CCC(=O)NC2=O)C3=O)nn1` (stereo not given) it is “in the range around 55 nM”; for `COc1cc(-c2cn(C)c(=O)c3cnccc23)cc(OC)c1CN1CC(OCc2cn(-c3ccc4c(c3)C(=O)N(C3CCC(=O)NC3=O)C4=O)nn2)C1` (stereo not given) it is “in the range around 55 nM”. On to `COc1cc(-c2cn(C)c(=O)c3cnccc23)cc(OC)c1CN1CC(OCc2cn(CCOCCOc3ccc4c(c3)C(=O)N(C3CCC(=O)NC3=O)C4=O)nn2)C1` (stereo not given), for which the IC50 entry is “in the range around 550 nM”. The figure for `COc1cc(-c2cn(C)c(=O)c3cnccc23)cc(OC)c1CN1CC(S(=O)(=O)NCCCCCNc2ccc3c(c2)C(=O)N(C2CCC(=O)NC2=O)C3=O)C1` (stereo not given) is under 10 nM. The entry for `COc1cc(-c2cn(C)c(=O)c3cnccc23)cc(OC)c1CN1CCCC(OCc2cn(CCOc3ccc4c(c3)C(=O)N(C3CCC(=O)NC3=O)C4=O)nn2)C1` (stereo not given) is “in the range around 55 nM”; for `COc1cc(-c2cn(C)c(=O)c3cnccc23)cc(OC)c1CN(C)CC12CC(NC(=O)CCCCOc3cccc4c3C(=O)N(C3CCC(=O)NC3=O)C4=O)(C1)C2` (stereo not given) it is under 10 nM.

As to `COc1cc(-c2cn(C)c(=O)c3cnccc23)cc(OC)c1CN1CC2CN(C(=O)CCOCCOc3ccc4c(c3)C(=O)N(C3CCC(=O)NC3=O)C4=O)CCC21` (stereo not given), the IC50 is under 10 nM.

As to `COc1cc(-c2cn(C)c(=O)c3cnccc23)cc(OC)c1CN(C)CC1CC12CCN(C(=O)CCOCCOc1cccc3c1C(=O)N(C1CCC(=O)NC1=O)C3=O)CC2` (stereo not given), the IC50 entry is “in the range around 55 nM”. Next, `COc1cc(-c2cn(C)c(=O)c3cnccc23)cc(OC)c1CN1CCC2(CC1)CN(C(=O)COc1cccc3c1C(=O)N(C1CCC(=O)NC1=O)C3=O)CCO2` (stereo not given): “in the range around 55 nM”.
